Source: paper PMC7824859, “BmK NSPK, a Potent Potassium Channel Inhibitor from Scorpion Buthus martensii Karsch, Promotes Neurite Outgrowth via NGF/TrkA Signaling Pathway” (Toxins, 2021)
Where two headings read alike, the source gives them in different places.

Experiments:
[1] = test system: spinal cord neurons (SCNs); test: Neurite outgrowth, MAP2 immunocytochemistry in SCNs; assay type: cell-based, C57BL/6 mice
Experimental: (§1) SCN cultures were performed as described previously. The dissociated neurons were planted into poly-L-lysine-coated 35 mm Petri dishes, 96-well plates at densities of 2 × 10^3 cells/dish for patch clamp, 2.25 × 10^5 and 2 × 10^3 cells/well for Ca^2+ imaging and neurite outgrowth experiments, respectively. Cells at 6–8 DIVs (days in vitro) were used to measure K^+ and Na^+ currents, membrane potential, or intracellular Ca^2+ concentration ([Ca^2+]i).
Immunocytochemistry was performed as described previously. After fixation, permeabilization, and blocking, neurons were incubated with primary antibody against MAP2 (1:1000) overnight at 4 °C and Alexa Fluor 488-conjugated goat anti-rabbit secondary antibody (1:1000) for 1 h at room temperature (RT), respectively. Hoechst 33,342 (1.6 μg/mL) was added into each well and incubated for 20 min to stain the nuclei. The images were captured by an eclipse inverted fluorescence microscope (Nikon, Tokyo, Japan). Neurites were manually tracked using ImageJ software (FIJI, version 1.51 g, NIH, Bethesda, MD, USA). Only the neurons with total neurite length ≥50 μm were used for quantification. The experiment was performed double blindly.

[2] = test system: voltage-gated sodium channels (VGSCs), Na+ currents in SCNs; test: Na+ currents, whole-cell patch clamp in SCNs; assay type: cell-based, C57BL/6 mice
Experimental: as §1
(§2) Current-clamp recordings can provide useful information about the contribution of a channel to membrane potential. Membrane potentials, Na^+ and K^+ currents in SCNs (6–8 DIVs), were recorded using whole-cell patch clamp using an EPC-10 amplifier and PatchMaster software (HEKA, Pfalz, Germany). Pipettes were pulled from 1.5 mm capillary tubing using a P-1000 puller (Sutter Instrument, Novato, CA, USA). The pipette resistance was 2–4 MΩ.
(§3) For current-clamp recordings, to record changes in membrane potential, patch pipettes were filled with intracellular solution containing the following (in mM): KCl 140, MgCl2 5, CaCl2 2.5, EGTA 5, ATP 4, GTP 0.3, and HEPES 10 (pH adjusted to 7.3 with KOH). The external solution contained the following (in mM): NaCl 140, MgCl2 1, KCl 5, CaCl2 2, glucose 10, and HEPES 10 (pH adjusted to 7.3 with NaOH). The membrane potentials were recorded by a 0 pA input current with a duration of 1 s. For voltage-clamp recordings, to record potassium currents, patch pipettes were filled with an internal solution containing (in mM): KCl 140, CaCl2 1, MgCl2 2.5, HEPES 10, EGTA 11, and ATP 4, and pH was adjusted to 7.2 with KOH. Cells were bathed in an external solution containing the following (in mM): choline chloride 150, KCl 5, MgCl2 1, HEPES 10, D-glucose 10, and NMDG 2, and pH was adjusted to 7.4 with KOH. […] Data were collected and analyzed using PatchMaster (HEKA Electronics, Pfalz, Germany) and SigmaPlot (version 10.3, Sigma-Aldrich). […]

[3] = test system: protein kinase B (Akt) phosphorylation in SCNs; test: Akt phosphorylation in SCNs, Western blot; assay type: cell-based, C57BL/6 mice; conditions: 30 nM, n = 4
Experimental: Equal amounts (30 μg) of cell lysates were loaded onto a 10% SDS-PAGE gel and transferred to a nitrocellulose membrane by electroblotting. After blocking, the blots were incubated with primary antibodies against p-Akt (1:1000) overnight at 4 °C and then incubated with the IRDye (680 RD or 800 CW)-labeled secondary antibodies (1:10,000) for 1 h at RT. The membranes were scanned and densitometry was quantified using LI-COR Odyssey Infrared Imaging System and its application software (version 2.1, LI-COR Biotechnology). The membranes were stripped with stripping buffer (LI-COR Biotechnology) and reblotted for analysis of the expression of Akt. Beta-tubulin (1:10,000) was used as a loading control.

[4] = test system: Kv channels, outward K+ currents (IK) in SCNs; test: Outward K+ current IK (IA + ID), whole-cell patch clamp in SCNs; assay type: cell-based, C57BL/6 mice
Experimental: as §1, §2
For current-clamp recordings, to record changes in membrane potential, patch pipettes were filled with intracellular solution containing the following (in mM): KCl 140, MgCl2 5, CaCl2 2.5, EGTA 5, ATP 4, GTP 0.3, and HEPES 10 (pH adjusted to 7.3 with KOH). The external solution contained the following (in mM): NaCl 140, MgCl2 1, KCl 5, CaCl2 2, glucose 10, and HEPES 10 (pH adjusted to 7.3 with NaOH). The membrane potentials were recorded by a 0 pA input current with a duration of 1 s. For voltage-clamp recordings, to record potassium currents, patch pipettes were filled with an internal solution containing (in mM): KCl 140, CaCl2 1, MgCl2 2.5, HEPES 10, EGTA 11, and ATP 4, and pH was adjusted to 7.2 with KOH. Cells were bathed in an external solution containing the following (in mM): choline chloride 150, KCl 5, MgCl2 1, HEPES 10, D-glucose 10, and NMDG 2, and pH was adjusted to 7.4 with KOH. To record sodium currents, patch pipettes were filled with an internal solution containing the following (in mM): CsF 135, HEPES 5, and NaCl 10, and pH was adjusted to 7.2 with CsOH. Cells were bathed in external solution containing the following (in […]): NaCl 30, MgCl2 1, CaCl2 1.8, CsCl 5, D-glucose 25, KCl 5, HEPES 5, TEACl 90, and KCl 5, and pH was adjusted to 7.4 with NaOH. Capacitance and series resistance were compensated using computer-controlled circuitry of the amplifier. The outward potassium currents (IK), which contain both transient (IA) and sustained delayed-rectifier (ID) components, were elicited by a series of depolarizing pulses from −110 mV to the potentials ranged from −60 to +80 mV in a 10 mV increment. To record the ID currents, voltages were stepped to the potentials ranged from −60 to +80 mV in a 10 mV increment from a 200 ms pre-depolarization potential of −40 mV that inactivated IA currents. IA currents were obtained by subtracting ID currents from IK currents. Na^+ currents were elicited by depolarization steps from a holding potential of −100 mV to +45 mV in a 5 mV increment. Data were collected and analyzed using PatchMaster (HEKA Electronics, Pfalz, Germany) and SigmaPlot (version 10.3, Sigma-Aldrich). Concentration–response curves were fitted using the Hill equation: Inor= C + A/[1 + ([BmK NSPK]/EC50)^p] […]
(§4) All data were presented as mean ± SEM. […] Statistical significance between different groups was calculated using an ANOVA and, where appropriate, a Dunnett′s multiple comparison test. […]

[5] = test system: spinal cord neurons (SCNs); test: Spontaneous calcium oscillation (SCO) measurement, FLIPR Tetra, primary cultured spinal cord neurons; assay type: cell-based, C57BL/6 mice; conditions: 6-8 DIV, N = 4 wells; for EC50: primary cultured SCNs, FLIPR Tetra, Hill slope = 1.0
Experimental: as §1
The intracellular Ca^2+ concentration [Ca^2+]i of SCNs was measured using FLIPR^Tetra® system (Molecular Devices, Sunnyvale, CA, USA) as described previously.
All data were presented as mean ± SEM. Graphing and data analysis were performed using GraphPad Prism software (Version 6.0, San Diego, CA, USA). Concentration–response curves were fitted by a nonlinear logistic equation. The IC50 values and 95% confidence intervals (CI) were determined by nonlinear regression using GraphPad Prism software. Statistical significance between different groups was calculated using an ANOVA and, where appropriate, a Dunnett′s multiple comparison test. A p-value below 0.05 was considered statistically significant.

[6] = test system: nerve growth factor (NGF) release in SCNs; test: NGF release into culture medium of SCNs, ELISA; assay type: cell-based, C57BL/6 mice; conditions: 10 nM, n = 4
Experimental: The NGF levels in the culture medium were determined by enzyme-linked immunosorbent assay (ELISA) kits according to the manufacturer’s instructions.

[7] = test system: Kv channels, delayed-rectifier (ID) currents in SCNs; test: Sustained delayed-rectifier K+ current ID, whole-cell patch clamp in SCNs; assay type: cell-based, C57BL/6 mice
Experimental: as §1, §2, §3, §4

[8] = test system: spinal cord neurons (SCNs), membrane potential; test: Membrane potential, whole-cell current-clamp recording in SCNs; assay type: cell-based, C57BL/6 mice
Experimental: as §1, §2
For current-clamp recordings, to record changes in membrane potential, patch pipettes were filled with intracellular solution containing the following (in mM): KCl 140, MgCl2 5, CaCl2 2.5, EGTA 5, ATP 4, GTP 0.3, and HEPES 10 (pH adjusted to 7.3 with KOH). […] The membrane potentials were recorded by a 0 pA input current with a duration of 1 s. […] Data were collected and analyzed using PatchMaster (HEKA Electronics, Pfalz, Germany) and SigmaPlot (version 10.3, Sigma-Aldrich). […]

[9] = test system: Kv channels, transient (IA) currents in SCNs; test: Transient K+ current IA, whole-cell patch clamp in SCNs; assay type: cell-based, C57BL/6 mice
Experimental: as §1, §2, §3, §4

[10] = test system: PC12 cells; conditions: via TrkA receptors; ref [38]; cited from earlier work
[11] = test system: sensory neurons; conditions: via TrkA receptors; ref [39]; cited from earlier work

## Cn1cc(/C=C2\C(=O)Nc3cccnc32)c2ccccc21 [GW 441756, reference compound]
[1]; GW 441756 1 μM added 30 min before BmK NSPK (10 nM), 48 h, p < 0.01 vs. BmK NSPK
  Effect on BmK NSPK-induced neurite outgrowth: abolished BmK NSPK-induced neurite outgrowth

## NC1=N[C@H](O)[C@H]2[C@H]3O[C@]4(O)O[C@@H]([C@@H](O)[C@@]2(N1)[C@@H]4O)[C@]3(O)CO [tetrodotoxin, reference compound]
[2]
  Effect on Na+ currents: suppressed the Na^+ currents

## BmK NSPK: new short-chain scorpion peptide purified from Buthus martensii Karsch venom, Kv channel inhibitor, sequence by Edman degradation (VGKNVICIHSGQCLIPCIDAGMRFGICKNGICDCTPKG)
[3]
  Duration of Akt phosphorylation increase: ≥ 30 min
  Onset of Akt phosphorylation increase: ≤ 5 min
[3]; p < 0.01 vs. Veh
  Phosphorylated levels of Akt: rapidly increased phosphorylated levels of Akt
[4]; 300 nM
  Voltage dependence of IK inhibition: voltage-dependent
[4]; 300 nM, depolarizing potentials −60 to +80 mV from holding −110 mV
  Effect on IK currents: inhibited the IK currents at all depolarized potentials
[4]; depolarization from -110 mV to +70 mV, 95% CI 0.68–8.61 nM, Hill slope = −0.86, N = 4–5 neurons, read-out: IC50, suppression of IK currents
  IC50: 2.42 nM
[4]; discussion wording, SCNs
  Potency on outward potassium channel currents: single-digit nanomolar concentrations
[4]; highest concentration (100 nM)
  Completeness of inhibition of IK, IA and ID currents: incomplete even at the highest concentration (100 nM)
[5]; SCNs
  Effect on amplitude and frequency of SCOs: rapid and sustained increase in both the amplitude and frequency of SCOs
[5]; 95% CI 2.22–17.4 nM, read-out: EC50 for increase in SCO frequency
  EC50: 6.22 nM
[5]; 95% CI 4.00–45.1 nM, read-out: EC50 for increase in SCO amplitude
  EC50: 13.4 nM
[6]
  Duration of NGF release: at least 8 h
[6]; p < 0.05 vs. Veh
  Increase in NGF release: ~ 50%
[7]; 300 nM, potentials −60 to +80 mV after 200 ms pre-depolarization at −40 mV
  Effect on ID currents: inhibited ID currents elicited by a series of depolarization potentials with voltage dependence
[7]; Figure 4J
  Maximal inhibition of ID currents: ~ 43%
[7]; depolarization from -40 mV to +70 mV, 95% CI 0.68–7.44 nM, Hill slope = −0.86, N = 4–5 neurons, read-out: IC50, suppression of ID currents
  IC50: 2.24 nM
[2]; 1000 nM, holding −100 mV to +45 mV in 5 mV increments, N = 4–5 neurons
  Effect on Na+ currents: no effect on the Na^+ currents
[2]; discussion wording
  Effect on VGSCs: little effect on VGSCs
[8]; SCN cultures, discussion wording
  Apparent affinity for membrane depolarization (and SCO increase): low apparent nanomolar affinity
[8]; SCNs, 6-8 DIV, 0 pA input, whole-cell current clamp
  Effect on membrane potential: concentration-dependent membrane depolarization
[1]; 48 h exposure commencing 5 h post-plating
  Concentration of maximal stimulation of neurite extension: ~ 10 nM
[1]; 48 h exposure commencing 5 h post-plating, MAP2 staining
  Effect on neurite extension: stimulated neurite extension in cultured SCNs in a nonmonotonic manner
[9]; 300 nM, each depolarizing potential
  Effect on IA currents: suppressed IA currents at each depolarizing potential
[9]; Figure 4J
  Maximal inhibition of IA currents: ~ 75%
[9]; IA = IK minus ID, 95% CI 0.41–2.13 nM, Hill slope = −1.27, N = 4–5 neurons, read-out: IC50, suppression of IA currents
  IC50: 0.93 nM

## nerve growth factor [NGF]
[10]
  Effect on neurite extension: enhance the neurite extension
[11]
  Effect on neurite extension: enhance the neurite extension
